According to patent US20220010352A1, “ANIMAL MODELS AND SCREENING METHODS FOR INTRAOCULAR DISEASE OR DISORDER” (ZHUHAI QlWEl BIO-TECHNOLOGY LTD., priority 2018, published 2022):
“Also recorded” adds a separate entry of the source.

What was measured:
[1] = test system: Bacillus megaterium; experiment: antibiotic sensitivity screening test in petri dishes (minimum inhibitory concentration method); format: cell-based; details: MIC method, 10^-1 to 10^-5 mg/mL in medium, FIG. 1
Method: The bacterial culture medium (HuanKai Microbial, Guangzhou, China) containing peptone 5 g, beef extract 3 g, NaCl 5 g, agar 15 g, and MnSO4 5 mg in 1 L ddH2O (pH=7.2) was prepared in conical flask (Drtech, Guangzhou, China) and was sterilized in the autoclave (HIRAYAMA, HEV-50, Japan) at 121° C. for 30 min. Bacillus megaterium (total 1*10^7 per culture) was cultured in the incubator (HettCube 200, Germany) at 37° C. for 24 h.
To test whether antibiotics can control the growth of Bacillus megaterium in vitro and in vivo, we first carried out an antibiotic sensitivity screening test in petri dishes which were made in example 1. The sensitivity of Bacillus megaterium to several major antimicrobial agents including ampicillin, vancomycin, neomycin, metronidazole and tetracycline were examined using the minimum inhibitory concentration (MIC) method. Ampicillin, vancomycin, neomycin, metronidazole, and tetracycline (purchased from Sigma, USA) at various concentrations (10^−1, 10^−2, 10^−3, 10^−4, 10^−5 mg/mL) were added into cooled medium.

[2] = ocular complications after intraocular administration in monkey; format: in vivo; details: data not shown
Description: Next, we used the Bacillus megaterium subretinal inoculation model to test whether antibiotics might be able to change the bacteria-induced drusenoid pathology in monkey retinal tissues.

[3] = test system: Bacillus megaterium; experiment: Bacillus megaterium subretinal inoculation model, bacteria-induced drusenoid pathology in retinal tissues; format: in vivo, Macaca fascicularis; details: intravitreous, 0.5 mg, one injection on Day 2 post bacterial inoculation; macaque; compared to control; FIG. 8
Method: The macaques were sedated by intramuscular injection of a mixture of tiletamine hydrochloride (2.5 mg/kg) and xolazepam hydrochloride (2.5 mg/kg). After instilling topical anesthesia (0.5% proparacaine hydrochloride), the eyes were immediately visualized in vivo using a light microscope. The pupils were then dilated with 0.5% tropicamide and 0.5% phenylephrine to obtain the fundus photographs. […] Under microscopic monitoring, 20 μl of PBS (with or without bacteria) was injected into the subretinal space between photo receptors and RPE (retinal pigment epithelium), using a NanoFil Syringe Nanofil-100 for Microinjection (World Precision Instruments, USA). All procedures were done using sterile instruments. The macaque was euthanized 47 days post inoculation and the eyeball was enucleated for histological analyses. The eyeballs were fixed in 4% paraformaldehyde for 48 h and then embedded in paraffin. Sections were cut on a microtome at 6 μm and stained with H&E.
We examined whether subretinal inoculation of AH and VH cultures, as well as the cultured single species of B. megaterium led to AMD like pathology in macaque. About 20 CFU of bacteria (in 20 μl PBS) from AH, VH, and B. megaterium cultures were injected subretinally and PBS was used as a control (illustrated in FIG. 6). […]

Compound: neomycin
- sensitivity of Bacillus megaterium to antimicrobial agent / in vitro activity controlling the expansion of Bacillus megaterium ([1]; 37° C. 24 h): most sensitive; also recorded: best in vitro activity
- ocular complications [2]: significant ocular complications including ophthalmatrophia

Compound: Cc1ncc([N+](=O)[O-])n1CCO [metronidazole]
- effectiveness in controlling the growth of Bacillus megaterium, fold less effective (relative to neomycin) [1]: 10000 fold

Compound: CN[C@H](CC(C)C)C(=O)N[C@H]1C(=O)N[C@@H](CC(N)=O)C(=O)N[C@H]2C(=O)N[C@H]3C(=O)N[C@H](C(=O)N[C@H](C(=O)O)c4cc(O)cc(O)c4-c4cc3ccc4O)[C@H](O)c3ccc(c(Cl)c3)Oc3cc2cc(c3O[C@@H]2O[C@H](CO)[C@@H](O)[C@H](O)[C@H]2O[C@H]2C[C@](C)(N)[C@H](O)[C@H](C)O2)Oc2ccc(cc2Cl)[C@H]1O [vancomycin]
- size of drusenoid lesion in retinal tissue [3]: reduction in the size of drusenoid lesion
